Compared with `Fc1ccc(Nc2nc(N/N=C/c3ccc4ccccc4c3)nc(N3CCOCC3)n2)cc1`, `NC(=O)c1ccc(-c2ccc(Oc3ccc(F)cc3)cc2)[nH]1` is lower in melting point: 225 to 226 °C for the first, 218 to 220 °C for the second.

First: CN1CCC(=C2c3ccccc3C=Cc3ccc(C(=O)O)cc32)CC1
Second: O=C(Cn1cc(-c2ccccc2)c(-c2ccccc2)n1)NCCN1CCCCC1
The melting point of the first is higher: 300 to 305 °C for the first, 120 to 124 °C for the second.

First: COc1ccc(OCC(=O)N[C@@H](Cc2ccccc2)C(=O)CSCc2ccsc2)cc1
Second: CSCC(=O)[C@H](CCc1ccccc1)NC(=O)[C@H](CC(C)C)NC(=O)OCc1ccccc1
The melting point of the first is lower: 80 to 81 °C for the first, 119 to 120 °C for the second.

First: CCN(CC)CC(O)CNC(=O)c1c(OC)c2cc(C)ccc2n1-c1ccccc1 (centres undefined)
Second: COC(=O)Cc1c(Cl)nc(-c2ccccc2)n1Cc1ccc(C)cc1
The melting point of the first is higher: 126 to 128 °C for the first, 92 to 95 °C for the second.

First: Cn1c(=O)c(C#N)c(N2CCN(C(=O)c3ccco3)CC2)c2cc(Cl)ccc21
Second: CN(CCOc1cn(-c2ccc(F)cc2)c2cc(Cl)ccc12)CCN1CCNC1=O
The melting point of the first is higher: 228 °C for the first, 100 to 102 °C for the second.

First: O=C(CCCl)Nc1cccc2c1C(=O)c1c(NC(=O)CCCl)cccc1C2=O
Second: O=C1c2ccccc2C(=O)c2oc(-c3cccs3)nc21
The melting point of the first is lower: 248 to 249 °C for the first, over 260 °C for the second.

Compared with `CC1=C(C#N)C(C)(c2ccccc2)C(C#N)=C(C)N1`, `CCOC(=O)c1cc(=O)c(Cl)c(-c2ccccc2)o1` is lower in melting point: 195 to 196 °C for the first, 103 to 105 °C for the second.

First: O=c1[nH]c(=O)c2cc(C(c3ccccc3)n3cncn3)ccc2[nH]1 (centres undefined)
Second: O=C1OC(c2ccccc2)=NC1Cc1c[nH]c2ccccc12 (centres undefined)
The melting point of the first is higher: 281 °C for the first, 141 to 143 °C for the second.

Compared with `O=C(O)c1ccc(OCCCO/N=C/c2cc(C(F)(F)F)cc(C(F)(F)F)c2)cc1O`, `CC(C)(O)COc1ccc(/C=C/C(=O)O)c(Oc2ncc(C(F)(F)F)cc2Cl)c1` is lower in melting point: 182 to 183 °C for the first, 126 to 128 °C for the second.

Compared with `CCN(CC)C(=O)c1ccc(I)cc1`, `COC(=O)CCC(=O)c1ccc(S)cc1` is higher in melting point: 68 to 70 °C for the first, 83 to 84 °C for the second.

Compared with `COc1ccc([N+](=O)[O-])c(NCCO)n1`, `N#CSc1ccc([N+](=O)[O-])cc1C(Cl)(Cl)Cl` is lower in melting point: 121 to 122 °C for the first, 72 °C for the second.

Compared with `O=C(Nc1ccc(C(CC2CCCC2)C(=O)Nc2ccccn2)cc1)c1cccnc1` (centres undefined), `O=C(NCC(=O)N1c2ccccc2N(Cc2ccccc2)C(=O)[C@H]2CCC[C@H]21)c1ccco1` (relative stereo) is higher in melting point: 160 to 163 °C for the first, 169 to 170 °C for the second.

First: O=Cc1ccc2nccnc2c1
Second: CC(C(N)=O)c1ccc2c(c1)Sc1ncccc1CC2=O (centres undefined)
The melting point of the first is lower: 134 °C for the first, 161 to 162 °C for the second.

First: Nc1nc2c(s1)CCN(CC=Cc1ccc(Cl)cc1)CC2
Second: OCC1=CCN(Cc2ccccc2)CC1
The melting point of the first is higher: 145 to 150 °C for the first, 57 to 60 °C for the second.

First: CC(C)C(=O)Oc1n[nH]c(=O)c2nc3cc(Cl)ccc3c(O)c12
Second: CCCc1c(OCc2cccc(CC(=O)O)c2)ccc(C(C)=O)c1O
The melting point of the first is higher: 328 to 335 °C for the first, 156 to 158 °C for the second.

First: COC(=O)CNc1ccc(CCNC(=O)c2ccc(C#N)cc2)cc1
Second: CCOc1nc2cccc(C(=O)OC)c2n1Cc1ccc(-c2ccccc2C(=O)OC)cc1
The melting point of the first is higher: 161 to 162 °C for the first, 112 to 113 °C for the second.

Compared with `Nc1c(-c2ccccc2)oc2c(CO)cccc2c1=O`, `CCOc1nn(-c2ccc(C(F)(F)F)cn2)cc1CCCOc1cccc(CCC(=O)O)c1` is lower in melting point: 192 °C for the first, 88 to 89 °C for the second.

First: CC(C)CC[C@H](O)[C@H](CC1CCCCC1)NC(=O)[C@H](Cc1c[nH]cn1)NC(=O)OC(C)(C)C
Second: C=CCc1ccccc1OC[C@@H](O)CNCCc1ccc(NC2CCN(S(=O)(=O)c3ccc(N(CCCCCC)C(N)=O)cc3)CC2)cc1
The melting point of the first is higher: 96 to 100 °C for the first, 68 to 70 °C for the second.

Compared with `NS(=O)(=O)c1ccc(-n2nc(C(F)(F)F)cc2-c2ccc(-c3cscn3)c(Cl)c2)cc1F`, `CC1(C)CCC(C)(C)c2cc(-c3cc(C=CC(=O)O)ccc3O)c(OCc3ccc(F)cc3)cc21` is lower in melting point: 173 to 175 °C for the first, 123 to 125 °C for the second.

With `COCCCNC(=O)OCCCc1ccc(OCCOC)cc1Oc1ncc(C(F)(F)F)cc1Cl` the melting point was 83.5 to 85 °C.

Source: a melting point compilation (Tetko et al.; mined from patent text by program, amines drawn as free bases though some values may be those of a salt)
